Assay results published in US20260041744A1, “Methods for Treating Pompe Disease” (Amicus Therapeutics, Inc., priority 2022, published 2026).
Entries after “also recorded” stand apart in the source; their conditions may differ.

Key:
[1] = system: adults with Pompe disease; assay: Study ATB200-02: plasma/serum creatine kinase (CK); details: Non-ambulatory ERT-experienced
Method: The change from baseline (CFBL) in 6MWD, % predicted sitting FVC, manual muscle test (MMT) and biomarkers—urine glucose tetrasaccharide (Hex4) and serum creatine kinase (CK)—were assessed at regular intervals.

Gaa KO mice = assay: Tissue glycogen content in Gaa KO mice (amyloglucosidase digestion); assay type: in vivo, mouse; details: 20 mg/kg ATB200 IV + 10 mg/kg miglustat PO, 6 biweekly administrations
Method: The therapeutic effects of ATB200 and miglustat were evaluated and compared against those of Alglucosidase alfa in Gaa KO mice. For the study, male Gaa KO (3-to 4-month old) and age-matched wild-type (WT) mice were used. Alglucosidase alfa was administered via bolus tail vein intravenous (IV) injection. In the co-administration regimen, miglustat was administered via oral gavage (PO) 30 minutes prior to the IV injection of ATB200. Treatment was given biweekly. Treated mice were sacrificed after 14 days from the last administration and various tissues were collected for further analysis. Table 11 summarizes the study design:
Tissue glycogen content in tissues samples was determined using amyloglucosidase digestion, as discussed above.

[2] = in vivo
Excerpt: Mean (SD) duration of treatment was 37.2 (14.48), 19.9 (4.13) and 36.9 (12.14) months in cohorts 1 (prior ERT 2-6 years), 4 (prior ERT ≥7 years) and 3 (ERT naive), respectively.
Mean (SD) duration of treatment was 46.3 (22.86) months.

[3] = system: adults with Pompe disease; assay: Study ATB200-02: sitting % predicted FVC; details: for FVC change from baseline, mean: Cohort 2 (non-ambulatory ERT-experienced)
Method: Four cohorts of patients with Pompe disease were enrolled in the ATB200-02 study: • Cohort 1: ERT-experienced, aged 18-65 years, with 2-6 years prior ERT with 20 mg/kg alglucosidase alfa every 2 weeks (n=11) • Cohort 2: Non-ambulatory ERT-experienced, aged 18-65 years, with ≥2 years prior ERT with 20 mg/kg alglucosidase alfa every 2 weeks (n=6)· • Cohort 3: ERT-naïve, aged 18-65 years (n=6). • Cohort 4: ERT-experienced, aged 18-75 years, with ≥7 years prior ERT with 20 mg/kg alglucosidase alfa every 2 weeks (n=6)
The change from baseline (CFBL) in 6MWD, % predicted sitting FVC, manual muscle test (MMT) and biomarkers—urine glucose tetrasaccharide (Hex4) and serum creatine kinase (CK)—were assessed at regular intervals. Data with up to 36 months of follow-up in ERT-experienced and ERT-naïve patients is provided herein. […] Due to the staggered timing of patient enrollment, the number of patients with data currently available decreases at later time-points in this ongoing study.

[4] = Cohort 1 + Cohort 3 + Cohort 4, Month 12
[5] = Cohort 1 + Cohort 3 + Cohort 4, Month 24
[6] = Cohort 1 + Cohort 3 + Cohort 4, Month 36
[7] = Cohort 1 + Cohort 3 + Cohort 4, Month 48

ATB200/miglustat: two-component therapy: cipaglucosidase alfa (ATB200) administered in conjunction with miglustat (AT2221), a stabilizer of cipaglucosidase alfa
Serum creatine kinase, % CFBL mean ([1]; 36 months): −27.1%
Serum creatine kinase, % CFBL mean ([1]; 48 months): −23.7%
tissue glycogen content vs alglucosidase alfa (Gaa KO mice): significantly decreased the glycogen content in four different tissues (quadriceps, triceps, gastrocnemius, and heart) as compared to the same dosage of alglucosidase alfa
patients with nasopharyngitis and with diarrhea (most common TEAEs) [2]: 3 patients
Percent predicted sitting FVC, CFBL mean ([3]; Ambulatory ERT-experienced, 12 months): −1.2
Percent predicted sitting FVC, CFBL mean ([3]; Ambulatory ERT-experienced, 24 months): 1.0
Percent predicted sitting FVC, CFBL mean ([3]; Ambulatory ERT-experienced, 36 months): −0.3
Percent predicted sitting FVC, CFBL mean ([3]; Ambulatory ERT-experienced, 48 months): 1.0
Percent predicted sitting FVC, CFBL mean ([3]; Ambulatory ERT-naïve, 12 months): 3.2
Percent predicted sitting FVC, CFBL mean ([3]; Ambulatory ERT-naïve, 24 months): 4.7
Percent predicted sitting FVC, CFBL mean ([3]; Ambulatory ERT-naïve, 36 months): 6.2
Percent predicted sitting FVC, CFBL mean ([3]; Ambulatory ERT-naïve, 48 months): 8.3
sitting % predicted FVC change from baseline, mean [3, 4]: 0.0%
sitting % predicted FVC change from baseline, median [3, 4]: −0.5%
sitting % predicted FVC change from baseline, mean [3, 5]: 2.2%
sitting % predicted FVC change from baseline, median [3, 5]: 2.0%
sitting % predicted FVC change from baseline, mean [3, 6]: 1.9%
sitting % predicted FVC change from baseline, median [3, 6]: 2.0%
sitting % predicted FVC change from baseline, mean [3, 7]: 3.9%
sitting % predicted FVC change from baseline, median [3, 7]: 4.5%
sitting % predicted FVC change from baseline, mean ([3]; Cohort 1 + Cohort 4 (ERT-experienced), Month 12, listed as cipaglucosidase alfa/miglustat): −1.2%
sitting % predicted FVC change from baseline, mean ([3]; Cohort 1 + Cohort 4 (ERT-experienced), Month 36): −0.3%
sitting % predicted FVC change from baseline, median ([3]; Cohort 1 + Cohort 4, Month 12): −1.0%
sitting % predicted FVC change from baseline, median ([3]; Cohort 1 + Cohort 4, Month 24): 1.0%
sitting % predicted FVC change from baseline, median ([3]; Cohort 1 + Cohort 4, Month 36): −1.5%
sitting % predicted FVC change from baseline, median ([3]; Cohort 1 + Cohort 4, Month 48): 3.5%
FVC change from baseline, mean ([3]; month 12): +2.5%
FVC change from baseline, mean ([3]; month 24): +2.0%
FVC change from baseline, mean ([3]; month 36): −2.0%
FVC change from baseline, mean ([3]; month 48): −1.0%
sitting % predicted FVC change from baseline, mean ([3]; Cohort 3 (ERT-naïve), Month 12): 3.2%
sitting % predicted FVC change from baseline, mean ([3]; Cohort 3 (ERT-naïve), Month 24): 4.7%
sitting % predicted FVC change from baseline, mean ([3]; Cohort 3 (ERT-naïve), Month 36): 6.2%
sitting % predicted FVC change from baseline, mean ([3]; Cohort 3 (ERT-naïve), Month 48): 8.3%
sitting % predicted FVC change from baseline, median ([3]; Cohort 3, Month 12): 4.5%
sitting % predicted FVC change from baseline, median ([3]; Cohort 3, Month 24): 4.0%
sitting % predicted FVC change from baseline, median ([3]; Cohort 3, Month 36): 5.0%
sitting % predicted FVC change from baseline, median ([3]; Cohort 3, Month 48): 9.5%
patients whose FVC improved (>3%) or remained stable (±3%) from baseline (n/N) ([3]; ERT-experienced, 12 months): 9/16
patients whose FVC improved (>3%) or remained stable (±3%) from baseline (n/N) ([3]; ERT-experienced, 24 months): 11/13
patients whose FVC improved (>3%) or remained stable (±3%) from baseline (n/N) ([3]; ERT-experienced, 36 months): 8/10
patients whose FVC improved (>3%) or remained stable (±3%) from baseline (n/N) ([3]; ERT-experienced, 48 months): 4/6
patients with improvement (CFBL >3% points) in % predicted sitting FVC ([3]; ERT-experienced, Month 48): 66.7%
patients whose FVC improved (>3%) or remained stable (±3%) from baseline (n/N) ([3]; ERT-naïve, 12 months): 5/6
patients whose FVC improved (>3%) or remained stable (±3%) from baseline (n/N) ([3]; ERT-naïve, 24 months): 6/6
patients whose FVC improved (>3%) or remained stable (±3%) from baseline (n/N) ([3]; ERT-naïve, 36 months): 5/5
patients whose FVC improved (>3%) or remained stable (±3%) from baseline (n/N) ([3]; ERT-naïve, 48 months): 4/4
patients with improvement (CFBL >3% points) in % predicted sitting FVC ([3]; ERT-naïve, Month 48): 75%
Percent predicted sitting FVC, CFBL mean ([3]; Non-ambulatory ERT-experienced, 12 months): 2.5
Percent predicted sitting FVC, CFBL mean ([3]; Non-ambulatory ERT-experienced, 24 months): 2.0
Percent predicted sitting FVC, CFBL mean ([3]; Non-ambulatory ERT-experienced, 36 months): −2.0
Percent predicted sitting FVC, CFBL mean ([3]; Non-ambulatory ERT-experienced, 48 months): −1.0
% predicted FVC outcome (words; cohort in the words) ([3]; up to 48 months, listed as cipaglucosidase alfa/miglustat): stable or improved % predicted FVC for ERT-experienced subjects (Cohorts 1 and 4), ERT-naïve subjects (Cohort 3), and overall (Cohorts 1, 3, and 4); also recorded: For Cohort 2 (non-ambulatory subjects), sitting % predicted FVC was stable in 2 subjects with available data out to 36 months
